According to US12144886B2, “Perineural administration of resiniferatoxin for treatment of maladaptive pain” (Sorrento Therapeutics, Inc., priority 2018, dated 2024):

Assays:
Assay type in all cases: in vivo
[1] = test system: declawed cat with maladaptive pain; assay: Physical exam and behavioral findings in a declawed cat after perineural RTX; settings: one cat
Protocol: (§1) Tolerance, safety, and analgesic effects of RTX administration were evaluated in a single declawed cat with maladaptive pain. […] The cat also presented a self-limiting decreased appetite for 12 hours post injection.
A summary of the pre- and post-RTX injection physical exam results relevant to pain related to the declawed digits are presented in Table 4.
Additionally, the cat had shown elimination behavior issues, aggressivity when manipulated, and diminished attention seeking before treatment. Each of these behavioral issues related to the chronic maladaptive pain state reversed following the perineural administration of RTX, even though the cat was believed to have been in pain for years prior to this treatment.

[2] = test system: declawed cat with maladaptive pain; assay: Client Specific Outcome Measure (CSOM) in a declawed cat after perineural RTX nerve blocks; design: key to CSOM Total score / CSOM Q1 Extending distal limb; “kneading”; stretching / CSOM Q2 Running / CSOM Q3 Jumping down from bed and window: 1 = no problem; 2 = mild difficulty; 3 = moderate; 4 = severe difficulty; 5 = impossible; settings: one cat; for CSOM Q1 Extending distal limb; “kneading”; stretching / CSOM Q2 Running / CSOM Q3 Jumping down from bed and window / CSOM Total score: 2.5 μg/forelimb perineural
Protocol: Each dose of 5 μg/cat or 2.5 μg/forelimb will be formulated in 1 cc insulin syringes by diluting 0.1 mL: (2.5 μg) of RTX in 0.9 mL sterile saline for injection immediately before use. For treatment, a total of 1.0 mL (2.5 μg) will be injected as nerve blocks, distributed equally (0.25 ml per injection site) over 4 injection sites for each forelimb.
Four point nerve blocks are performed by injection of 0.25 mL RTX each into the 1) superficial branches of the radial nerve, 2) dorsal branch of the ulnar nerve, 3) median nerve and superficial branch of the palmar branch of the ulnar nerve, and 4) deep branch of the palmar branch of the ulnar nerve. The nerve blocks for each forelimb are performed following a published technique for locoregional block of the manus in cats (Enomoto et al. (2016) J. Feline Med. Surg. 18:838-845). To block the superficial branches of the radial nerve (RSbr nn), the limb is positioned with the dorsal aspect facing upwards and the carpus in 180° of extension. A 25 G×⅝-inch needle is inserted subcutaneously (SC) from a point at the center of the limb at the level of the antebrachiocarpal joint. The needle is advanced approximately 10 mm SC at a 10-20° angle to the long axis of the limb with the bevel facing up. Once the tip of the needle is 3-5 mm from the confluence point of the accessory cephalic and cephalic veins, the injection is made (0.25 mL). To block the dorsal branch of the ulnar nerve (UDbr n), the limb is positioned with the lateral aspect facing upwards. A point is located lateral to and at the same level as the accessory carpal bone (ACb), positioned between the ACb and the styloid process of the ulna (SpU). A 25 G×⅝-inch needle is inserted SC distal to proximal, so the tip lies at the midpoint of the groove formed between ACb and the SpU, and then the injection is made (0.25 mL). To block the median nerve (M n) and superficial branch of the palmar branch of the ulnar nerve (UPbrS n), the limb is positioned with the palmar aspect facing upwards. A 25 G×⅝-inch needle is inserted SC at the distal border of the carpal pad and approximately 5 mm lateral to it, perpendicular to the long axis of the metacarpus, with the bevel facing up. The needle is inserted SC until the point is located two-thirds of the distance from the lateral aspect of the limb to the medial aspect. Two-thirds of the injectate volume is deposited at this point and the remaining volume is injected while the needle is withdrawn (0.25 mL). Gentle massage is applied to the injected volume under the skin for 5 seconds. To block the deep branch of the palmar branch of the ulnar nerve (UPbrDp n), the limb is positioned with the palmar aspect facing upwards. A 25 G×⅝-inch needle is inserted almost perpendicular to the ACb in a mediolateral direction such that the needle contacts the medial palmar aspect of the midpoint of the ACb with the bevel facing up. The needle is then redirected dorsally and advanced on the medial side of the ACb 2-3 mm until it penetrates the flexor retinaculum, and then the injection is made (0.25 mL).
The effectiveness of the injection with RTX is assessed at days 3, 7, and 14 using owner videography for qualitative assessment (jumping, manipulation of the limb), and cats will also be evaluated using the Feline Musculoskeletal Pain Index (FMPI) and the Client Specific Outcome Measure (CSOM).
For CSOM, owners are asked to score three attributes (Q1) Extending distal limb, “kneading”; stretching, (Q2) Running; and (Q3) Jumping down from bed and window using a scale of 1-5 where 1=no problem, 2=mild difficulty, 3=moderate, 4=severe difficulty, and 5=impossible.
as §1

[3] = test system: declawed cat with maladaptive pain; assay: Tolerance and safety of perineural RTX in a single declawed cat
Protocol: The safety of the injection of RTX is assessed by comparing the results of a complete blood count (CBC) and a chemistry panel done at screening with the results obtained at day 14. Cats were also monitored for adverse events.
as §1

[4] = one cat, 2.5 μg/forelimb perineural

C=C(C)[C@]12C[C@@H](C)[C@@]34O[C@](Cc5ccccc5)(O[C@@H]1[C@@H]3C=C(COC(=O)Cc1ccc(O)c(OC)c1)C[C@]1(O)C(=O)C(C)=C[C@@H]41)O2 [RTX, resiniferatoxin]
Behavioral issues (elimination behavior issues, aggressivity when manipulated, diminished attention seeking) ([1]; following perineural administration): reversed
Overall conclusion from CSOM and FMPI scores ([1]; 2.5 μg/forelimb perineural): safe and effective
Persistence of effects ([1]; 2.5 μg/forelimb perineural): at least 14 days
CSOM Q1 Extending distal limb; “kneading”; stretching ([2]; Day 0 (baseline)): 3
CSOM Q2 Running ([2]; Day 0 (baseline)): 3
CSOM Q3 Jumping down from bed and window ([2]; Day 0 (baseline)): 2
CSOM Total score ([2]; Day 0 (baseline)): 8
CSOM Q1 Extending distal limb; “kneading”; stretching ([2]; Day 3): 2
CSOM Q2 Running ([2]; Day 3): 3
CSOM Q3 Jumping down from bed and window ([2]; Day 3): 2
CSOM Total score ([2]; Day 3): 7
CSOM Q1 Extending distal limb; “kneading”; stretching ([2]; Day 7): 1
CSOM Q2 Running ([2]; Day 7): 2
CSOM Q3 Jumping down from bed and window ([2]; Day 7): 2
CSOM Total score ([2]; Day 7): 5
CSOM Q1 Extending distal limb; “kneading”; stretching ([2]; Day 14): 2
CSOM Q2 Running ([2]; Day 14): 2
CSOM Q3 Jumping down from bed and window ([2]; Day 14): 2
CSOM Total score ([2]; Day 14): 6
CSOM Q1 Extending distal limb; “kneading”; stretching ([2]; Screening (baseline)): 3
CSOM Q2 Running ([2]; Screening (baseline)): 3
CSOM Q3 Jumping down from bed and window ([2]; Screening (baseline)): 2
CSOM Total score ([2]; Screening (baseline)): 8
CSOM: extending distal limb, kneading, stretching and running ([2]; after injection): showed improvement
Allergic-like reactions ([3]; one cat): No signs of allergic-like reactions were observed
Edema or pain in the injected areas ([3]; one cat): no signs of edema or pain were present
Resolution of adverse events (panting, salivation) ([3]; one cat): resolved within two hours
Complications during RTX administration [3, 4]: No complications were observed
Tolerability of injection [3, 4]: generally well tolerated
Adverse events ([3]; one hour post-injection): panting and salivation
Duration of self-limiting decreased appetite ([3]; post injection, one cat): 12 h
